How the values were obtained:
[1] = Parallel Artificial Membrane Permeability Assay (PAMPA), GI; format: in vitro ADME; details: GI (intestinal) PAMPA, value in brackets
Procedure: Parallel Artificial Membrane Permeability Assay (PAMPA). Donor solution (0.5 mM) was prepared by diluting 1 mM dimethylsulfoxide (DMSO) compound stock solution using phosphate buffer (pH 7.4, 0.025 M). Filters were coated with 5 μL of a 1% (w/v) dodecane solution of phosphatidylcholine prepared from CHCl3 solution 10% w/v, for intestinal permeability. Donor solution (150 μL) was added to each well of the filter plate. To each well of the acceptor plate were added 300 μL of solution (50% DMSO in phosphate buffer). All compounds were tested in three different plates on different days. The sandwich was incubated for 5 h at room temperature under gentle shaking. After the incubation time, the plates were separated, and samples were taken from both receiver and donor sides and analyzed using LC with UV detection at 280 nm.
LC analysis were performed with a Varian Prostar HPLC system (Varian Analytical Instruments, USA) equipped with a binary pump with a manual injection valve and model Prostar 325 UV-VIS Detector. Chromatographic separations were conducted using a Polaris C18-A column (150-4.6 mm, 5 μm particle size) at a flow rate of 0.8 mL min^−1 with a mobile phase composed of 60% ACN/40% H2O.
Permeability (Papp) for PAMPA was calculated according to the following equation, obtained from Wohnsland and Faller and Sugano et al. equation with some modification in order to obtain permeability values in cm s^−1,
where VA is the volume in the acceptor well, VD is the volume in the donor well (cm^3), A is the “effective area” of the membrane (cm^2), t is the incubation time (s) and r the ratio between drug concentration in the acceptor and equilibrium concentration of the drug in the total volume (VD+VA). Drug concentration is estimated by using the peak area integration.
Membrane retentions (%) were calculated according to the following equation: […]
where r is the ratio between drug concentration in the acceptor and equilibrium concentration, D, A, and Eq represented drug concentration in the donor, acceptor and equilibrium solution, respectively.

[2] = tested on: Human Prostate cell line derived from brain metastasis (DU-145); experiment: Cytotoxicity test / growth inhibition, DU-145; format: cell-based; details: DU-145, 48 hours, cell counting
Procedure: (§1) Cells were purchased from American Type Culture Collection (ATCC, Manassas, Va., USA). The LNCaP (ATCC® CRL-1740™), A549 (ATCC® CCL-185™), MDA-MB-231 (ATCC® CRM-HTB-26™), 22Rv1 (ATCC® CRL-2505™), HCT-116 (ATCC® CCL-247™) and PC3 (ATCC® CRL-1435™) cells were maintained in Roswell Park Memorial Institute 1640 medium (RPMI; Euroclone, ECB9006L) supplemented with 10% fetal bovine serum (Euroclone; ECS0180L), 2 mM L-glutamine, 100 units/mL penicillin and […] streptomycin at 37° C. in an atmosphere of 5% CO2/air. DU145 (ATCC® HTB-81™), and DAOY (ATCC® HTB-186™) cells were maintained in Eagle's minimal essential medium (EMEM; Euro-clone, ECM0445L) supplemented with 10% fetal bovine serum (Euroclone; ECS0180L), 2 mM L-glutamine, 100 units/ml penicillin and […] streptomycin at 37° C. in an atmosphere of 5% CO2/air. SH-SY5Y (ATCC® CRL-2266™), DBRTG (ATCC® CRL-2020™), HeLa (ATCC® CCL-2™), HN6 cells (kindly provided by Dr Silvio Gutkind, UCSD Medical Center, Moores Cancer Center USA, Chen J. J et al, Oncotarget 2013, 4, 206-217)), U2OS (ATCC® HTB-96™), RD18 cells (kindly provided by Dr P. Boccuni Memorial Sloan-Kettering Cancer Center, New York, USA Vella S. et al. Clin Epigenetics. 2015 6; 7-82), cells were maintained in Dulbecco's modified Eagle's medium (DMEM; Euroclone, ECB7501L) supplemented with 10% fetal bovine serum (Euroclone; ECS0180L), 2 mM L-glutamine, 100 units/ml penicillin and 100 mg/mL streptomycin at 37° C. in an atmosphere of 5% CO2/air.
(§2) Cell lines were seeded at appropriate densities in 2 mL growth medium in 6-wells culture plates 24 hours before the treatment with the inhibitor compounds. After 24 h the culture medium was removed and fresh medium containing increasing concentrations of chemical compounds was added to cells. The fixed final concentrations were: 0.1 μM, 1 μM, 10 μM, 100 μM. DMSO was the vehicle used for dilution of the compounds and its final concentration on cells was less than 0.2%. Medium-only containing wells were included as controls. Cells were incubated 48 hours with drugs and, then, cell viability was evaluated.
(§3) Cells were detached from each well of the 6-wells plates with 300 μL of Trypsin and suspended in culture medium to a final volume of 1 mL. Cell viability was then assessed through cell counting. Cells were diluted in 1:50 ratio of an isotonic buffered diluent, Isoton (Backman Coulter), following the manufacturer's instructions, and counted using an automated cell counter (Z2 series Coulter Counter, Beckman Coulter). Each cell count was performed in three replicates. The values corresponding to the relative survival of cells in presence of each chemical compound at single concentrations were normalized to the untreated controls. […]

[3] = tested on: Human Prostate cancer cell line (PC3); experiment: Cytotoxicity test / growth inhibition, PC3; format: cell-based; details: PC3, 48 hours, cell counting
Procedure: as §1, with “2015 6; 7-82), cells were maintained in Dulbecco's modified Eagle's medium (DMEM; Euroclone, ECB7501L) supplemented with 10% fetal bovine serum (Euroclone; ECS0180L), 2 mM L-glutamine, 100 units/ml penicillin and 100 mg/mL streptomycin at 37° C. in an atmosphere of 5% CO2/air.” left out
(§4) Cell lines were seeded at appropriate densities in 2 mL growth medium in 6-wells culture plates 24 hours before the treatment with the inhibitor compounds. […] Cells were incubated 48 hours with drugs and, then, cell viability was evaluated.
(§5) Cells were detached from each well of the 6-wells plates with 300 μL of Trypsin and suspended in culture medium to a final volume of 1 mL. Cell viability was then assessed through cell counting. Cells were diluted in 1:50 ratio of an isotonic buffered diluent, Isoton (Backman Coulter), following the manufacturer's instructions, and counted using an automated cell counter (Z2 series Coulter Counter, Beckman Coulter). […]

[4] = tested on: Human breast adenocarcinoma cell line (MDA-MB-231); experiment: Cytotoxicity test / growth inhibition, MDA-MB-231; format: cell-based; details: MDA-MB-231, 48 hours, cell counting
Procedure: as §1, §2
(§6) Cells were detached from each well of the 6-wells plates with 300 μL of Trypsin and suspended in culture medium to a final volume of 1 mL. Cell viability was then assessed through cell counting. Cells were diluted in 1:50 ratio of an isotonic buffered diluent, Isoton (Backman Coulter), following the manufacturer's instructions, and counted using an automated cell counter (Z2 series Coulter Counter, Beckman Coulter). Each cell count was performed in three replicates. The values corresponding to the relative survival of cells in presence of each chemical compound at single concentrations were normalized to the untreated controls. Then, the half maximal inhibitory concentration (IC50) value, which represent the drug concentration that is required to induce a 50% growth inhibition in vitro, was calculated with GraphPad Prism 6.0 software using the best fitting sigmoid curve.

[5] = tested on: Human cervical carcinoma cell line (HeLa); experiment: Cytotoxicity test / growth inhibition, HeLa; format: cell-based; details: 48 hours, cell counting
Procedure: as §1, with “2015 6; 7-82), cells were maintained in Dulbecco's modified Eagle's medium (DMEM; Euroclone, ECB7501L) supplemented with 10% fetal bovine serum (Euroclone; ECS0180L), 2 mM L-glutamine, 100 units/ml penicillin and 100 mg/mL streptomycin at 37° C. in an atmosphere of 5% CO2/air.” left out
as §4, §5

[6] = tested on: Human adenocarcinomic alveolar basal epithelial cell line (A549); experiment: Cytotoxicity test / growth inhibition, A549; format: cell-based; details: A549, 48 hours, cell counting
Procedure: as §1, §2, §6

[7] = tested on: Human colorectal carcinoma cell line (HCT116); experiment: Cytotoxicity test / growth inhibition, HCT116; format: cell-based; details: HCT-116, HCT116, 48 hours, cell counting
Procedure: as §1, with “2015 6; 7-82), cells were maintained in Dulbecco's modified Eagle's medium (DMEM; Euroclone, ECB7501L) supplemented with 10% fetal bovine serum (Euroclone; ECS0180L), 2 mM L-glutamine, 100 units/ml penicillin and 100 mg/mL streptomycin at 37° C. in an atmosphere of 5% CO2/air.” left out
as §4, §5

[8] = tested on: Human osteosarcoma cell line (U2OS); experiment: Cytotoxicity test / growth inhibition, U2OS; format: cell-based; details: 48 hours, cell counting
Procedure: as §1, §2, §6

[9] = tested on: Human head and neck squamous carcinoma cell line (HN6); experiment: Cytotoxicity test / growth inhibition, HN6; format: cell-based; details: HN6, 48 hours, cell counting
Procedure: as §1, §2, §6

[10] = tested on: Human muscle rhabdomyosarcoma cell line (RD18); experiment: Cytotoxicity test / growth inhibition, RD18; format: cell-based; details: RD18, 48 hours, cell counting
Procedure: (§7) Cells were purchased from American Type Culture Collection (ATCC, Manassas, Va., USA). The LNCaP (ATCC® CRL-1740™), A549 (ATCC® CCL-185™), MDA-MB-231 (ATCC® CRM-HTB-26™), 22Rv1 (ATCC® CRL-2505™), HCT-116 (ATCC® CCL-247™) and PC3 (ATCC® CRL-1435™) cells were maintained in Roswell Park Memorial Institute 1640 medium (RPMI; Euroclone, ECB9006L) supplemented with 10% fetal bovine serum (Euroclone; ECS0180L), 2 mM L-glutamine, 100 units/mL penicillin and […] streptomycin at 37° C. in an atmosphere of 5% CO2/air. […]
as §4, §5

[11] = tested on: Human brain glioblastoma cell line (DBTRG); experiment: Cytotoxicity test / growth inhibition, DBTRG; format: cell-based; details: 48 hours, cell counting
Procedure: as §7, §4, §5

[12] = tested on: Human medulloblastoma cell line (DAOY); experiment: Cytotoxicity test / growth inhibition, DAOY; format: cell-based; details: 48 hours, cell counting
Procedure: as §7, §4, §5

[13] = Microsomal Stability Assay (HLM); format: in vitro ADME; details: human liver microsomes, 37° C., 60 min, NADPH-generating system; percentage of not metabolized compound
Source text: For the quantification was used an LC-MS system consisted of a Varian apparatus (Varian Inc) including a vacuum solvent degassing unit, two pumps (212-LC), a Triple Quadrupole MSD (Mod. 320-LC) mass spectrometer with ES interface and Varian MS Workstation System Control Vers. 6.9 software. Chromatographic separation was obtained using a Pursuit C18 column (50×2.0 mm) (Varian) with 3 μm particle size and gradient elution: eluent A being ACN and eluent B consisting of water. […] The flow rate was 0.2 mL min^−1 and injection volume was 5 μL. The instrument operated in positive mode and parameters were: detector 1850 V, drying gas pressure 25.0 psi, desolvation temperature 300.0° C., nebulizing gas 40.0 psi, needle 5000 V and shield 600 V. Nitrogen was used as nebulizer gas and drying gas. Collision induced dissociation was performed using Argon as the collision gas at a pressure of 1.8 mTorr in the collision cell. Microsomal Stability Assay. […] The reaction was stopped by cooling on ice and adding 1.0 mL of acetonitrile. The reaction mixtures were then centrifuged, and the parent drug and metabolites were subsequently determined by LC-UV-MS. Chromatographic analysis was performed with an Agilent 1100 LC/MSD VL system (G1946C) (Agilent Technologies, Palo Alto, Calif.) constituted by a vacuum solvent degassing unit, a binary high-pressure gradient pump, an 1100 series UV detector, and an 1100 MSD model VL benchtop mass spectrometer.
Chromatographic separation was obtained using a Varian Polaris C18-A column (150-4.6 mm, 5 μm particle size) and gradient elution: eluent A being ACN and eluent B consisting of water. […] The flow rate was 0.8 mL min^−1 and injection volume was 20 μL.
The Agilent 1100 series mass spectra detection (MSD) single-quadrupole instrument was equipped with the orthogonal spray API-ES (Agilent Technologies, Palo Alto, Calif.). Nitrogen was used as nebulizing and drying gas. The pressure of the nebulizing gas, the flow of the drying gas, the capillary voltage, the fragmentor voltage, and the vaporization temperature were set at 40 psi, 9 L/min, 3000 V, 70 V, and 350° C., respectively. UV detection was monitored at 280 nm. The LC-ESI-MS determination was performed by operating the MSD in the positive ion mode. Spectra were acquired over the scan range m/z 100-1500 using a step size of 0.1 u. The percentage of not metabolized compound was calculated by comparison with reference solutions.

[14] = tested on: Human Prostate Adenocarcinoma cell line (LNCaP); experiment: Cytotoxicity test / growth inhibition, LNCaP; format: cell-based; details: 48 hours, cell counting
Procedure: as §7, §4, §5

[15] = tested on: Human Prostate carcinoma epithelial cell line (22Rv1); experiment: Cytotoxicity test / growth inhibition, 22Rv1; format: cell-based; details: 22Rv1, 48 hours, cell counting
Procedure: as §7, §4, §5

[16] = tested on: Human Neuroblastoma cell line (SH-SY5Y); experiment: Cytotoxicity test / growth inhibition, SH-SY5Y; format: cell-based; details: 48 hours, cell counting
Procedure: as §7, §4, §5

[17] = tested on: Human Glioblastoma cell line (U87); experiment: Cytotoxicity test / growth inhibition, U87; format: cell-based; details: U87, 48 hours, cell counting
Procedure: as §2, §3

| SMILES | PAMPA GI (RM %) membrane retention [1] | IC50 [2] | IC50 [3] | IC50 [4] | IC50 [5] | IC50 [6] | IC50 [7] | IC50 [8] | IC50 [9] | IC50 [10] | IC50 [11] | IC50 [12] | Sability % [13] | IC50 [14] | IC50 [15] | IC50 [16] | IC50 [17] |
| --- | --- | --- | --- | --- | --- | --- | --- | --- | --- | --- | --- | --- | --- | --- | --- | --- | --- |
| CCCCc1cn(-c2ccc(NC(=O)Nc3ccccc3C(F)(F)F)cc2)nn1 [Compound 22a, 1-(4-(4-butyl-1H-1,2,3-triazol-1-yl)phenyl)-3-(2-(trifluoromethyl)phenyl)urea] | 23.9% | 0.1 µM | 25.6 µM | 1.4 µM | 6.29 µM | 1.4 µM | 3.9 µM | 4.2 µM | 0.8 µM | 3.2 µM | 5.8 µM | 3.3 µM |  |  |  |  |  |
| CCCCc1cn(-c2cccc(S(=O)(=O)Nc3ccccc3C(F)(F)F)c2)nn1 [Compound 64d, 3-(4-butyl-1H-1,2,3-triazol-1-yl)-N-(2-(trifluoromethyl)phenyl)benzenesulfonamide] |  | 3 µM |  | 15.7 µM | 51.7 µM | 21.3 µM |  |  |  |  |  |  | 99% | 16.7 µM | 14 µM | 18.8 µM | 87 µM |
